Data on 37 molecules can be found in publication PMC6271041, “Synthesis and Biological Evaluation of Novel 2-Arylalkylthio-5-iodine-6-substituted-benzyl-pyrimidine-4(3H)-ones as Potent HIV-1 Non-Nucleoside Reverse Transcriptase Inhibitors” (Molecules, 2014).

SMILES strings stand for the structures.

The target in one data set is T1, HIV-1 RT (Human immunodeficiency virus type 1 group M subtype B, UniProt P04585).
T1 construct: The biotin-dUTP was incorporated by reverse transcriptase (Sigma, St. Louis, MO, USA); purchased Sigma
Description: Inhibitory activity against HIV-1 RT (biotin-dUTP incorporation, colorimetric). It is filed as biochemical. Conditions: for IC50: mean of three separate experiments, variation less than 15%. The protocol:
Oligo(dT) (TaKaRa Co., Otsu, Japan) was immobilized via its 5'-terminal phosphate to Covalink-NH microtiter plates (NUNC Co., Roskilde, Denmark). The biotin-dUTP was incorporated by reverse transcriptase (Sigma, St. Louis, MO, USA). Briefly, a serial concentration of inhibitor was added to the mixture, which contained 50 mmol/L Tris-HCl (pH 8.3), 3 mmol/L MgCl2, 75 mmol/L KCl, 5 mmol/L DTT, 0.13 mg/mL BSA, 10 μg/mL poly (A), 0.75 μM biotin-11-Dutp, 1.5 μM dTTP and HIV-1 RT. After incubation at 37 °C for 1h, washing buffer, which contained 50 mmol/L Tris-HCl (pH 7.5), 0.15 mol/L NaCl, 0.05 mmol/L MgCl2 and 0.02% Tween20, was used to wash the plate. Then each well of the plate was added […] 1% BSA and incubated at room temperature for another 30 min. The plate was washed with the same buffer for 3 times. Before further incubation at 37 °C for 1 h, 50 μL of alkaline phosphatase streptavidin (SA-ALP) solution (100 ng/mL) was added to each well and washed again as above. Finally, 50 μL of p-nitrophenyl phosphate, disodium (PNPP, 1 mg/mL, pH 9.5) was added and incubated at 37 °C for 30 min. 0.5 mol/L NaOH was added to stop the reaction and a colorimetric streptavidin-alkaline phosphatase reporter system was used to detect and quantify the result.

The term melting point denotes the temperature, or range, at which the solid turns liquid. One may read the IC50 as the midpoint of a concentration-inhibition curve. A higher IC50 goes with lower potency. `COC(=O)c1ccc(CSc2nc(Cc3cc(F)cc(F)c3)c(I)c(=O)[nH]2)cc1` [8l, 2-(4-Methoxycarbonylbenzylthio)-5-iodine-6-(3,5-difluorobenzyl)uracil] showed a melting point of 210 to 213 °C. In addition, at HIV-1 RT, the “fold more active compared to nevirapine (HIV-1 RT IC50)” value is reported as “about 10 fold” and half-maximal inhibition (IC50) was put at 0.71 µM.

On to `O=c1[nH]c(SCOCc2ccccc2)nc(Cc2ccccc2)c1I` [8v, 2-(Benzyloxymethylthio)-5-iodine-6-benzyluracil], for which the melting point fell in the range of 133 to 135 °C. The same molecule had an IC50 at HIV-1 RT of 10.2 µM.

The molecule `COC(=O)c1ccc(CSc2nc(Cc3ccccc3)cc(=O)[nH]2)cc1` [7j, 2-(4-Methoxycarbonylbenzylthio)-6-benzyluracil] returned a melting point of 214 to 217 °C. Moreover, at HIV-1 RT, the half-maximal inhibitory concentration (IC50) is above 100 µM.

For the molecule `COC(=O)c1ccc(CSc2nc(Cc3cc(C)cc(C)c3)cc(=O)[nH]2)cc1` [7k, 2-(4-Methoxycarbonylbenzylthio)-6-(3,5-dimethylbenzyl)uracil], the melting point was in the range of 221 to 224 °C. Also, the IC50 at HIV-1 RT turned out to be 7.5 µM.

For `N#Cc1ccc(CSc2nc(Cc3ccccc3)cc(=O)[nH]2)cc1` [7d, 2-(4-Cyanobenzylthio)-6-benzyluracil], the melting point fell in the range of 190 to 193 °C. The molecule also showed an IC50 against HIV-1 RT above 100 µM.

For the molecule `Cc1cc(C)cc(Cc2nc(SCOCc3ccccc3)[nH]c(=O)c2I)c1` [8w, 2-(Benzyloxymethylthio)-5-iodine-6-(3,5-dimethylbenzyl)uracil], the melting point fell in the range of 200 to 202 °C. The molecule further came in with an IC50 at HIV-1 RT of 8.75 µM.

In turn, `Cc1cc(C)cc(Cc2cc(=O)[nH]c(SCCCOc3ccccc3)n2)c1` [7t, 2-(Phenoxypropylthio)-6-(3,5-dimethylbenzyl)uracil] showed a melting point of 100 to 102 °C. Also, at HIV-1 RT, the IC50 worked out at 2.64 µM.

On to `Cc1cc(C)cc(Cc2nc(SCc3ccc(C#N)cc3)[nH]c(=O)c2I)c1` [8e, 2-(4-Cyanobenzylthio)-5-iodine-6-(3,5-dimethylbenzyl)uracil], for which the melting point lay within 224 to 227 °C. Further, on HIV-1 RT, the IC50 came out at 4.03 µM.

`CC(=O)c1ccc(CSc2nc(Cc3cc(F)cc(F)c3)cc(=O)[nH]2)cc1` [7i, 2-(4-Acetylbenzylthio)-6-(3,5-difluorobenzyl)uracil] registered a melting point of 251 to 254 °C. This molecule yielded an IC50 on HIV-1 RT of 33.9 µM.

Turning to `COC(=O)c1ccc(CSc2nc(Cc3ccccc3)c(I)c(=O)[nH]2)cc1` [8j, 2-(4-Methoxycarbonylbenzylthio)-5-iodine-6-benzyluracil], the melting point was in the range of 214 to 216 °C. This molecule also returned a half-inhibitory concentration (IC50) against HIV-1 RT of 3.64 µM.

In the case of `O=c1cc(Cc2ccccc2)nc(SCCCOc2ccccc2)[nH]1` [7s, 2-(Phenoxypropylthio)-6-benzyluracil], the melting point was in the range of 89 to 91 °C. On HIV-1 RT, this molecule had an IC50 of 16.7 µM.

Molecule `Cc1cc(C)cc(Cc2cc(=O)[nH]c(SCc3ccc([N+](=O)[O-])cc3)n2)c1` [7b, 2-(4-Nitrobenzylthio)-6-(3,5-dimethylbenzyl)uracil] registered a melting point of 218 to 220 °C. The IC50 on HIV-1 RT came out at 3.32 µM.

For the molecule `Cc1cc(C)cc(Cc2nc(SCc3ccc([N+](=O)[O-])cc3)[nH]c(=O)c2I)c1` [8b, 2-(4-Nitrobenzylthio)-5-iodine-6-(3,5-dimethylbenzyl)uracil], the melting point was in the range of 224 to 228 °C. Besides, the IC50 against HIV-1 RT came out at 1.66 µM.

`O=c1[nH]c(SCCOc2ccc([N+](=O)[O-])cc2)nc(Cc2ccccc2)c1I` [8p]: the melting point is 204 to 205 °C. Also, 6.28 µM corresponded to half-maximal inhibition on HIV-1 RT (IC50).

Take `O=c1cc(Cc2ccccc2)nc(SCCc2ccc([N+](=O)[O-])cc2)[nH]1` [7m, 2-(4-Nitrophenethylthio)-6-benzyluracil]: the melting point lay within 200 to 204 °C. The same molecule had a half-maximal inhibitory concentration (IC50) at HIV-1 RT of 67.2 µM.

The molecule `O=c1[nH]c(SCCCOc2ccccc2)nc(Cc2ccccc2)c1I` [8s, 2-(Phenoxypropylthio)-5-iodine-6-benzyluracil] had a melting point of 135 to 137 °C. It took 5.88 µM to reach half-maximal inhibition against HIV-1 RT (IC50).

Regarding `O=c1cc(Cc2cc(F)cc(F)c2)nc(SCc2ccc([N+](=O)[O-])cc2)[nH]1` [7c, 2-(4-Nitrobenzylthio)-6-(3,5-difluorobenzyl)uracil], the half-inhibitory concentration (IC50) on HIV-1 RT was above 100 µM.

`CC(=O)c1ccc(CSc2nc(Cc3cc(F)cc(F)c3)c(I)c(=O)[nH]2)cc1` [8i, 2-(4-Acetylbenzylthio)-5-iodine-6-(3,5-difluorobenzyl)uracil]: the melting point was 205 to 206 °C. The molecule also gave a half-inhibitory concentration (IC50) against HIV-1 RT of 4.03 µM.

With `CC(=O)c1ccc(CSc2nc(Cc3cc(C)cc(C)c3)cc(=O)[nH]2)cc1` [7h, 2-(4-Acetylbenzylthio)-6-(3,5-dimethylbenzyl)uracil], the melting point lay within 195 to 197 °C. On HIV-1 RT, this molecule gave an IC50 of 17 µM.

`COC(=O)c1ccc(CSc2nc(Cc3cc(F)cc(F)c3)cc(=O)[nH]2)cc1` [7l, 2-(4-Methoxycarbonylbenzylthio)-6-(3,5-difluorobenzyl)uracil] showed a melting point of 279 to 280 °C. Moreover, the IC50 on HIV-1 RT was above 100 µM.

For the molecule `N#Cc1ccc(CSc2nc(Cc3cc(F)cc(F)c3)cc(=O)[nH]2)cc1` [7f, 2-(4-Cyanobenzylthio)-6-(3,5-difluorobenzyl)uracil], the melting point lay in the range of 205 to 208 °C. At HIV-1 RT, this molecule displayed a concentration for half-maximal inhibition (IC50) of 15.8 µM.

`O=c1cc(Cc2cc(F)cc(F)c2)nc(SCCc2ccc([N+](=O)[O-])cc2)[nH]1` [7o, 2-(4-Nitrophenethylthio)-6-(3,5-difluorobenzyl)uracil] registered a melting point of 220 to 222 °C. At HIV-1 RT, the IC50 was 18.1 µM.

Molecule `CC(=O)c1ccc(CSc2nc(Cc3ccccc3)cc(=O)[nH]2)cc1` [7g, 2-(4-Acetylbenzylthio)-6-benzyluracil] gave a melting point of 204 to 205 °C. Further, the IC50 at HIV-1 RT worked out at 55 µM.

The molecule `O=c1[nH]c(SCCCOc2ccccc2)nc(Cc2cc(F)cc(F)c2)c1I` [8u, 2-(Phenoxypropylthio)-5-iodine-6-(3,5-difluorobenzyl)uracil] displayed a melting point of 156 to 158 °C. Further, on HIV-1 RT, the midpoint of inhibition, the IC50, lay at 18 µM.

With `Cc1cc(C)cc(Cc2nc(SCCCOc3ccccc3)[nH]c(=O)c2I)c1` [8t, 2-(Phenoxypropylthio)-5-iodine-6-(3,5-dimethylbenzyl)uracil], the melting point lay within 165 to 167 °C. The 50% inhibitory concentration (IC50) at HIV-1 RT stood at 12.9 µM.

In turn, `O=c1[nH]c(SCc2ccc([N+](=O)[O-])cc2)nc(Cc2ccccc2)c1I` [8a, 2-(4-Nitrobenzylthio)-5-iodine-6-benzyluracil] yielded a melting point of 207 to 210 °C. At HIV-1 RT, this molecule showed an IC50 of 9.2 µM.

In the case of `O=c1[nH]c(SCCc2ccc([N+](=O)[O-])cc2)nc(Cc2ccccc2)c1I` [8m, 2-(4-Nitrophenethylthio)-5-iodine-6-benzyluracil], the melting point is 209 to 212 °C. This molecule also came in with a concentration for half-maximal inhibition (IC50) against HIV-1 RT of 8.64 µM.

In turn, `COC(=O)c1ccc(CSc2nc(Cc3cc(C)cc(C)c3)c(I)c(=O)[nH]2)cc1` [8k, 2-(4-Methoxycarbonylbenzylthio)-5-iodine-6-(3,5-dimethylbenzyl)uracil] showed a melting point of 208 to 211 °C. In addition, half-maximal inhibition at HIV-1 RT (IC50) was put at 1.11 µM.

Regarding `O=c1cc(Cc2ccccc2)nc(SCCOc2ccc([N+](=O)[O-])cc2)[nH]1` [7p, 2-(2-(4-Nitrophenoxy)ethylthio)-6-benzyluracil], the melting point fell in the range of 212 to 213 °C. Moreover, inhibition at HIV-1 RT was half-maximal at 4.58 µM (IC50).

With `N#Cc1ccc(CSc2nc(Cc3cc(F)cc(F)c3)c(I)c(=O)[nH]2)cc1` [8f, 2-(4-Cyanobenzylthio)-5-iodine-6-(3,5-difluorobenzyl)uracil], the melting point is 216 to 219 °C. Further, inhibition against HIV-1 RT was half-maximal at 4.49 µM (IC50).

With `Cc1cc(C)cc(Cc2cc(=O)[nH]c(SCOCc3ccccc3)n2)c1` [7w, 2-(Benzyloxymethylthio)-6-(3,5-dimethylbenzyl)uracil], the melting point lay in the range of 134 to 136 °C. For the same molecule, on HIV-1 RT, the IC50 was 1.82 µM.

The molecule `O=c1cc(Cc2cc(F)cc(F)c2)nc(SCCCOc2ccccc2)[nH]1` [7u, 2-(Phenoxypropylthio)-6-(3,5-difluorobenzyl)uracil] returned a melting point of 100 to 101 °C. The molecule also gave a half-maximal inhibitory concentration (IC50) on HIV-1 RT of 14.4 µM.

On to `N#Cc1ccc(CSc2nc(Cc3ccccc3)c(I)c(=O)[nH]2)cc1` [8d, 2-(4-Cyanobenzylthio)-5-iodine-6-benzyluracil], for which the melting point was in the range of 223 to 226 °C. Besides, the IC50 on HIV-1 RT worked out at 10.6 µM.

In the case of `O=c1cc(Cc2ccccc2)nc(SCOCc2ccccc2)[nH]1` [7v, 2-(Benzyloxymethylthio)-6-benzyluracil], the melting point was 118 to 120 °C. This molecule also had a 50% inhibitory concentration (IC50) against HIV-1 RT of 12.9 µM.

Molecule `Cc1cc(C)cc(Cc2cc(=O)[nH]c(SCc3ccc(C#N)cc3)n2)c1` [7e, 2-(4-Cyanobenzylthio)-6-(3,5-dimethylbenzyl)uracil] gave a melting point of 193 to 196 °C. In addition, it took 29.6 µM to reach half-maximal inhibition at HIV-1 RT (IC50).

The molecule `O=c1[nH]c(SCCc2ccc([N+](=O)[O-])cc2)nc(Cc2cc(F)cc(F)c2)c1I` [8o, 2-(4-Nitrophenethylthio)-5-iodine-6-(3,5-difluorobenzyl)uracil] displayed a melting point of 220 to 221 °C. In addition, at HIV-1 RT, the half-maximal inhibitory concentration (IC50) was 6.88 µM.

`CC(C)c1c(Cc2ccccc2)n(COCc2ccccc2)c(=O)[nH]c1=O` [TNK-651, reference compound] had an IC50 at HIV-1 RT of 0.14 µM.
